Biological target: T1, p38δ:PROTAC:VHL ternary complex (Homo sapiens, UniProt O15264+P40337)
T1 construct: encoding a region spanning amino acids 1-365 was PCR-amplified; His6 (N); made in house; host or cells: E. coli (BL21-CodonPlus(DE3)-RIPL for p38δ; BL21(DE3) for GST-VBC)
Assay: In vitro ternary complex pull-down with GST-VBC bait, purified p38δ
Assay type: binding
From the text: FIGS. 15A, 15B, and 15C. Differential p38δ:PROTAC:VHL ternary complex affinities result in distinct cellular ubiquitination outcomes. (A) Both exemplary compound 50 and 46 pull-down p38δ in vitro, however compound 46 maintains ternary complex at lower concentrations. As in FIG. 14A, GST-tagged VBC was used as a bait to trap recombinant p38δ in the presence of vehicle (DMSO) or the indicated concentrations of compound 50 or 46. The rightmost lane represents a 1:25 dilution of initial input protein used in each pull-down. […] GST-VBC was immobilized on glutathione sepharose beads and incubated with MDA-MB-231 whole cell lysate (WCL) in the presence of vehicle (DMSO) or the indicated concentrations of compound 50 or 46. Beads were washed and “trapped” proteins (i.e. those that engage in a ternary complex) were eluted with SDS sample buffer and separated by SDS-PAGE. Samples were assessed by western blot and CUL2 and α-tubulin serve as positive and negative GST-VBC immunoprecipitation controls, respectively. (C) Only exemplary compound 46 ubiquitinates FLAG-p38δ in HeLa cells. As in FIG. 14C, HeLa cells were co-transfected with HA-Ub and FLAG-p38δ and were either treated with vehicle (DMSO) or 1 μM of compound 50 or 1 μM of compound 46 for 2 hours. FLAGimmunoprecipitated lysates were separated by SDS-PAGE and assessed via western blots detecting HA (Ub). […]

T1 sequence (O15264 whole entry, the tested form may be a part): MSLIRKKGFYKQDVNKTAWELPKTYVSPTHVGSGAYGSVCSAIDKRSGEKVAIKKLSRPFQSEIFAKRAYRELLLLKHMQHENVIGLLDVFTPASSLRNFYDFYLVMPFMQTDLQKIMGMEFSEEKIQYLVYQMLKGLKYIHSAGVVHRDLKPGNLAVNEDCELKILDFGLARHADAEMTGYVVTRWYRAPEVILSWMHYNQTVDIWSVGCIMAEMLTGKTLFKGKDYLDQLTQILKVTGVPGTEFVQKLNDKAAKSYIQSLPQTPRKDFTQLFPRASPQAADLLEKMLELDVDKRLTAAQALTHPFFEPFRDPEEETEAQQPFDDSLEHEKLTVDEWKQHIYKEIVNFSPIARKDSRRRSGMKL
T1 sequence (P40337 whole entry, the tested form may be a part): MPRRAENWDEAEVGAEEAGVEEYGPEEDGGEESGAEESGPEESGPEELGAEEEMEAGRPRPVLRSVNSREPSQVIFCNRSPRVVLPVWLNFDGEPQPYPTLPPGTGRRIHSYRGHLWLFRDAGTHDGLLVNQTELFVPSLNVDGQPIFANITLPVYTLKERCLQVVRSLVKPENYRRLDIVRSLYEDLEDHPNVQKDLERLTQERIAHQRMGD
T1 sequence (Q15370 whole entry partner, the tested form may be a part): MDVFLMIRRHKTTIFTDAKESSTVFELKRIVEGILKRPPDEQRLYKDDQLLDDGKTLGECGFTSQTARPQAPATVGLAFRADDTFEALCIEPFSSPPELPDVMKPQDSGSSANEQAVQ
T1 sequence (Q15369 whole entry partner, the tested form may be a part): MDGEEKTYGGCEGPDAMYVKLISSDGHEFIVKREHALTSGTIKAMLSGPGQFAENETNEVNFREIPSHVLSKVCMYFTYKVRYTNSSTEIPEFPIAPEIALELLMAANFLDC

Compound: COc1cc2c(Oc3ccc(NC(=O)C4(C(=O)Nc5ccc(F)cc5)CC4)cc3F)ccnc2cc1OCCOCCOCCOc1cc(-c2scnc2C)ccc1CNC(=O)[C@@H]1C[C@@H](O)CN1C(=O)[C@H](C(C)C)N1Cc2ccccc2C1=O [compound 46]
- pull-down of purified p38δ on GST-VBC-coated beads: slightly greater ternary complex pull-down efficiency

Compound: COc1cc2c(Oc3ccc(NC(=O)C4(C(=O)Nc5ccc(F)cc5)CC4)cc3F)ccnc2cc1OCCCCOCCCCOCC(=O)N[C@H](C(=O)N1C[C@H](O)C[C@H]1C(=O)NCc1ccc(-c2scnc2C)cc1)C(C)(C)C [compound 50, N-(3-fluoro-4-((7-(4-(4-(2-(((S)-1-((2S,4R)-4-hydroxy-2-((4-(4-methylthiazol-5-yl)benzyl)carbamoyl)pyrrolidin-1-yl)-3,3-dimethyl-1-oxobutan-2-yl)amino)-2-oxoethoxy)butoxy)buto-xy)-6-methoxyquinolin-4-yl)oxy)phenyl)-N-(4-fluorophenyl)cyclopropane-1,1-dicarboxa-mide]
- pull-down of purified p38δ on GST-VBC-coated beads: able to pull-down purified p38δ on GST-VBC-coated beads in a dose-dependent manner

— patent publication US20180353501A1 (Arvinas, Inc., priority 2017, published 2018)
